Data from PubChem BioAssay (NCI).
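Step 1: Grow cells in 96-well plates. Step 2: Expose to compound for 48 hours at 5 concentrations. Step 3: Interpolate endpoints linearly; if unreached, use highest concentration. The concentration for full growth arrest is given as TGI.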 Where a SMILES comes first, the peptide text is derived from it. The star is where a group is joined. Boc = CC(C)(C)OC(=O)*; Bn = c1ccc(C*)cc1

Tests used:
Experiment in all cases: NCI tumour cell line growth inhibition, 48 h
[1] = tested on: NCI/ADR-RES ovarian
[2] = tested on: HS 578T breast
[3] = tested on: SF-295 CNS
[4] = tested on: ACHN renal
[5] = tested on: SNB-19 CNS
[6] = tested on: M14 melanoma
[7] = tested on: HCT-116 colon
[8] = tested on: SR leukemia
[9] = tested on: HCT-15 colon
[10] = tested on: UO-31 renal
[11] = tested on: TK-10 renal
[12] = tested on: HCC-2998 colon
[13] = tested on: NCI-H460 lung
[14] = tested on: MALME-3M melanoma

Row | SMILES | TGI [1] | TGI [2] | TGI [3] | TGI [4] | TGI [5] | TGI [6] | TGI [7] | TGI [8] | TGI [9] | TGI [10] | TGI [11] | TGI [12] | TGI [13] | TGI [14]
1 | COc1ccc2c(c1)C1c3ccccc3CCN1CCC2 (centres undefined) | > 100 µM | > 100 µM | 54 µM | > 100 µM | > 100 µM | > 100 µM | > 100 µM | > 100 µM | > 100 µM | > 100 µM | > 100 µM | 63.5 µM |  | 
2 | CC(=O)c1sc2n(C)c(=O)c3ccccc3[n+]2c1C | > 100 µM | > 100 µM | > 100 µM | > 100 µM | > 100 µM | > 100 µM | > 100 µM | > 100 µM | > 100 µM | > 100 µM | > 100 µM | > 100 µM | > 100 µM | 
3 | CCOC(=O)CON=c1c2ccccc2ccc2ccccc12 | > 100 µM | > 100 µM | > 100 µM | > 100 µM | > 100 µM | > 100 µM | > 100 µM | > 100 µM | > 100 µM | > 100 µM | > 100 µM | > 100 µM | > 100 µM | > 100 µM
4 | CN(C)c1cccc(/C=C(\C#N)c2ccccc2)c1 | 3.5 µM | 2.79 µM | 15.1 µM | > 100 µM | > 53.8 µM | > 47.2 µM | 57.5 µM | > 8.15 µM | > 58.4 µM | > 100 µM | 56.6 µM | 7.28 µM | 12.5 µM | > 73.7 µM
5 | Cc1ncc([N+](=O)[O-])n1CCNC(=O)Cn1ccnc1[N+](=O)[O-] | > 100 µM | > 100 µM | > 100 µM | > 100 µM | > 100 µM | > 100 µM | > 100 µM | > 100 µM | > 100 µM | > 100 µM | > 100 µM | > 100 µM | > 100 µM | > 100 µM
6 | CC(C)(C)OC(=O)NC(Cc1ccc(OCc2ccccc2)cn1)C(=O)O (centres undefined) | > 100 µM | > 100 µM | > 100 µM | > 100 µM | > 100 µM |  | > 100 µM | > 100 µM | > 100 µM | > 100 µM | > 100 µM | > 100 µM | > 100 µM | > 100 µM
7 | CC(C)(C)OC(=O)NCC(=O)N(CCc1ccc(Cl)c(Cl)c1)CCN1CCCC1 | 36.7 µM | 46.5 µM | 33.1 µM | 40.8 µM | 34.4 µM | 28.6 µM | 27.9 µM | 32.2 µM | 37.4 µM | 28.7 µM | 31.5 µM | 16.2 µM | 30.2 µM | 36.4 µM
8 | O=C(/N=C1/OC(CN2CCOCC2)CN1C(=O)Nc1ccccc1)Nc1ccccc1 (centres undefined) | > 100 µM | > 100 µM | > 100 µM | > 100 µM | > 100 µM | > 100 µM | > 100 µM | > 100 µM | > 100 µM | > 100 µM | > 100 µM | > 100 µM | > 100 µM | > 100 µM
9 | [O-]/[N+](=N/c1ncc(-c2ccccc2)cn1)c1ncc(-c2ccccc2)cn1 | > 100 µM | > 100 µM | > 100 µM | > 100 µM | > 100 µM | > 100 µM | > 100 µM | > 100 µM | > 100 µM | > 100 µM | > 100 µM | > 100 µM | > 100 µM | > 100 µM
10 | Cc1ccc(C2=Nn3c(nc4sc5c(c4c3=O)CCCC5)SC2)cc1 | > 100 µM | > 100 µM | > 100 µM | > 100 µM |  |  | > 100 µM | > 100 µM | > 100 µM | > 100 µM | > 100 µM | > 100 µM | > 100 µM | > 100 µM
11 | COC(=O)C(CC(C)C)NC(=O)CNC(=O)C(Cc1ccc(OCc2ccccc2)cc1)NC(=O)C(COCc1ccccc1)NC(=O)OC(C)(C)C (centres undefined) (Boc-S(Bn)Y(Bn)GL-OMe; configuration not given here) | > 100 µM | > 100 µM | > 100 µM | > 100 µM | > 100 µM | > 100 µM | > 100 µM | > 100 µM |  | > 100 µM | > 100 µM |  | > 100 µM | > 100 µM
12 | CC(=O)c1c2c(cc3c1CC1(C3)Cc3cc4c(c(C(C)=O)c3C1)CCCC4)CCCC2 | > 100 µM | > 100 µM | > 100 µM | > 100 µM |  | > 100 µM | > 100 µM | 53.2 µM | > 100 µM | 0.314 µM | > 100 µM | > 100 µM |  | > 100 µM
13 | CC1(C)CC2C(/C1=N/O)C1(C)CCCC2(C)C1O (centres undefined) | > 100 µM | > 100 µM | > 100 µM | > 100 µM | > 100 µM | > 100 µM | > 100 µM | > 100 µM | > 100 µM | > 100 µM | > 100 µM |  | > 100 µM | > 100 µM
14 | O=C1/C(=C/c2ccc(OC(=O)c3ccc(Cl)cc3)cc2)CCC/C1=C\c1ccc(OC(=O)c2ccc(Cl)cc2)cc1 | > 100 µM | > 100 µM |  | > 100 µM | > 100 µM | > 100 µM | > 100 µM | > 100 µM | > 100 µM | > 100 µM | > 100 µM | > 100 µM | > 100 µM | 
15 | CC(C)(C)OC(=O)NC(Cc1ccc(OCc2ccccc2)cn1)C(N)=O (centres undefined) | > 100 µM | > 100 µM | > 100 µM | > 100 µM | > 100 µM |  | > 100 µM | > 100 µM | > 100 µM | > 100 µM | > 100 µM | > 100 µM | > 100 µM | > 100 µM
16 | N#CCN1CCN(CC#N)CCN(CC#N)CCN(CC#N)CC1 | > 100 µM | > 100 µM | > 100 µM | > 100 µM | > 100 µM | > 100 µM | > 100 µM | > 100 µM |  | > 100 µM | > 100 µM | > 100 µM | > 100 µM | > 100 µM
